Measured values from patent US8519188B2, “Compounds which can be used for the treatment of cancers” (Marc-Henry Pitty, priority 2008, dated 2013).

Assays:
[1] = system: MCF-7/adr adriamycin-resistant breast cancer cell line; assay: Cell proliferation (CellTiter 96 AQueous MTS/PMS), MCF-7/adr; type: cell-based; details: Homo sapiens, NCI/ADR-RES; MCF-7/adr; 72 hours of incubation; concentration that induces the death of 50% of the cells; read-out: CI50 for various cell lines (nM) MCF-7/adr
Method: (§1) The effects of the compounds of the invention on the proliferation of cancer cells were studied on various human cancer cell lines of various tissue origins (MCF-7: breast cancer, MCF-7/adr adriamycin-resistant breast cancer, ARH-77: myeloma, ARH-77/Dox: doxorubicin (other name for adriamycin)-resistant myeloma, HL-60: acute promyelocytic leukaemia, HL-60/R10: doxorubicin-resistant acute promyelocytic leukaemia). The cancer cells used for this study were incubated at 37° C. in the presence of one of the compounds of the invention added to the culture medium at various concentrations.
(§2) The cancer cell lines originate from the ATCC (American Type Culture Collection) in the case of MCF-7, ARH-77 and HL-60, from Pharmacell (Paris, France) for HL-60/R10, from Oncodesign (Dijon, France) for ARH-77/Dox and from the Pitié Salpetrière Hospital for MCF-7/adr. They were cultivated in a RPMI 1640 medium containing 2 mM L-glutamine and supplemented with 10% foetal calf serum. All the cell lines were maintained in culture at 37° C. in a moist atmosphere containing 5% CO2. Cell proliferation was evaluated using the “CellTiter 96® AQueous” reagent (Promega, Wis., USA) while adhering to the manufacturer's instructions. The cells were seeded in 96-well culture plates in a proportion of from 5,000 to 10,000 cells per well in 200 μl of culture medium. After 24 hours of preincubation at 37° C., the compounds of the invention dissolved in dimethyl sulphoxide (DMSO) were added individually to each of the wells in a proportion of 2 μl per well. After 72 hours of incubation at 37° C. in a moist atmosphere containing 5% CO2, 40 μL of a MTS/PMS ([3-(4,5-dimethylthiazol-2-yl)-5-(3-carboxymethoxyphenyl)-2-(4-sulphophenyl)-2H-tetrazolium phenazine methosulphate) solution were added to each well.

[2] = system: MCF-7 breast cancer cell line; assay: Cell proliferation (CellTiter 96 AQueous MTS/PMS), MCF-7; type: cell-based; details: Homo sapiens, MCF7; MCF-7; 72 hours of incubation; concentration that induces the death of 50% of the cells; read-out: CI50 for various cell lines (nM) MCF-7
Method: as §1, §2

SMILES | IC50 [1] | IC50 [2]
O=C(NC1CCCCC1)C(c1cccs1)N(C(=O)CCl)c1cccc(C(F)(F)F)c1 (centres unmarked) [Compound 110, 2-[(2-Chloroacetyl)-(3-trifluoromethylphenyl)amino]-N-cyclo hexyl-2-thiophen-2-yl-acetamide] | 1 nM | 70 nM
C#CC(=O)N(c1ccc(C#N)cc1)C(C(=O)NC1CCCCC1)c1cccs1 (centres unmarked) [Compound 53, Propynoic Acid (4-cyanophenyl)(cyclohexylcarbamoylthiophen-2-yl-methyl)amide] | 2.8 nM | 372 nM
O=C(NC1CCCCC1)C(c1ccc(N2CCCC2)cc1)N(C(=O)CCl)c1cccc(C(F)(F)F)c1 (centres unmarked) [Compound 150] | 0.6 nM | 230 nM
O=C(NC1CCCCC1)C(c1cccs1)N(C(=O)CBr)c1cccc(C(F)(F)F)c1 (centres unmarked) [Compound 107, 2-[(2-Bromoacetyl)-(3-trifluoromethylphenyl)amino]-N-cyclohexyl-2-thiophen-2-yl-acetamide] | 0.5 nM | 267 nM
C#CC(=O)N(c1cccc(C(F)(F)F)c1)C(C(=O)NC1CCCCC1)c1ccc(C)cc1C (centres unmarked) [Compound 100, Propynoic Acid [cyclohexylcarbamoyl-(2,4-dimethylphenyl)methyl]-(3-trifluoromethylphenyl)amide] | 0.5 nM | 308 nM
C#CC(=O)N(c1cccc(C(F)(F)F)c1)C(C(=O)NC1CCCCC1)c1ccc(C#N)cc1 (centres unmarked) [Compound 81, Propynoic Acid [(4-cyanophenyl)cyclohexylcarbamoylmethyl]-(3-trifluoromethylphenyl)amide] | 1.6 nM | 269 nM
C#CC(=O)N(c1ccc(C(O)(C(F)(F)F)C(F)(F)F)cc1)C(C(=O)NC1CCCCC1)c1cccs1 (centres unmarked) [Compound 29, Propynoic Acid (cyclohexylcarbamoylthiophen-2-yl-methyl)-[4-(2,2,2-trifluoro-1-hydroxy-1-trifluoromethylethyl)phenyl]amide] | 18 nM | 877 nM
C#CC(=O)N(c1cccc(C(F)(F)F)c1)C(C(=O)NC1CCCCC1)c1ccc(Cl)c(Cl)c1 (centres unmarked) [Compound 102, Propynoic Acid [cyclohexylcarbamoyl-(3,4-dichlorophenyl)methyl]-(3-trifluoromethylphenyl)amide] | 1 nM | 428 nM
C#CC(=O)N(c1cccc(C(F)(F)F)c1)C(C(=O)NC1CCCCC1)c1ccccc1F (centres unmarked) [Compound 72, Propynoic Acid [cyclo hexylcarbamoyl-(2-fluorophenyl)methyl]-(3-trifluoromethylphenyl)amide] | 3 nM | 619 nM
O=C(CN(C(=O)CCl)c1cccc(C(F)(F)F)c1)NC1CCCCC1 [Compound 130, 2-Chloro-N-cyclohexylcarbamoylmethyl-N-(3-trifluoromethylphenyl)acetamide] | 34 nM | 203 nM
C#CC(=O)N(c1ccccc1C)C(C(=O)NC1CCCCC1)c1cccs1 (centres unmarked) [Compound 60, Propynoic Acid (cyclohexylcarbamoylthiophen-2-yl-methyl)-o-tolylamide] | 3.5 nM | 357 nM
O=C(NC1CCCCC1)C(c1cccs1)N(C(=O)CCl)c1ccc(O)cc1 (centres unmarked) [Compound 128, 2-[(2-Chloroacetyl)-(4-hydroxyphenyl)amino]-N-cyclohexyl-2-thiophen-2-yl-acetamide] | 86 nM | 133 nM
C#CC(=O)N(c1cccc(C(F)(F)F)c1)C(C(=O)NC1CCCCC1)c1ccc(Cl)cc1Cl (centres unmarked) [Compound 86, Propynoic Acid [cyclohexylcarbamoyl-(2,4-dichlorophenyl)methyl]-(3-trifluoromethylphenyl)amide] | 0.8 nM | 216 nM
CN(C)c1ccc(C(C(=O)NC2CCCCC2)N(C(=O)CCl)c2cccc(C(F)(F)F)c2)cc1 (centres unmarked) [Compound 147] | 1.1 nM | 92 nM
COC(=O)c1ccc(NC(=O)C(c2cccs2)N(C(=O)CCl)c2cccc(C(F)(F)F)c2)cc1 (centres unmarked) [Compound 154] | 3.5 nM | 88 nM
COC(=O)c1cccc(NC(=O)C(c2cccs2)N(C(=O)CCl)c2cccc(C(F)(F)F)c2)c1 (centres unmarked) [Compound 153] | 1.3 nM | 79 nM

SMILES | IC50 [1] | IC50 [2]
COc1ccc(CNC(=O)C(C)(C)N(C(=O)CCl)c2ccc(Oc3ccccc3)cc2C)cc1 [Compound 187, 2-[(2-Chloro-acetyl)-(2-methyl-4-phenoxy-phenyl)-amino]-N-(4-methoxy-benzyl)-2-methyl-propionamide] | 99 nM | 1130 nM
C#CC(=O)N(c1cccc(C(F)(F)F)c1)C(C(=O)NC1CCCCC1)c1ccc(F)cc1 (centres unmarked) [Compound 74, Propynoic Acid [cyclohexylcarbamoyl-(4-fluorophenyl)methyl]-(3-trifluoromethylphenyl)amide] | 2.9 nM | 506 nM
C#CC(=O)N(c1cccc(C(F)(F)F)c1)C(C(=O)NC1CCCCC1)c1cccc(C)c1 (centres unmarked) [Compound 94, Propynoic Acid (cyclohexylcarbamoyl-m-tolylmethyl)-(3-trifluoromethylphenyl)amide] | 2 nM | 599 nM
C#CC(=O)N(c1ccc2[nH]ncc2c1)C(C(=O)NC1CCCCC1)c1cccs1 (centres unmarked) [Compound 49, Propynoic Acid (cyclohexylcarbamoylthiophen-2-yl-methyl)-(1H-indazol-5-yl)-amide] | 1 nM | 220 nM
C#CC(=O)N(c1cccc(C(F)(F)F)c1)C(C(=O)NC1CCCCC1)c1ccc2c(c1)OCO2 (centres unmarked) [Compound 63, Propynoic Acid (benzo[1,3]dioxol-5-yl-cyclohexylcarbamoylmethyl)-(3-trifluoromethylphenyl)amide] | 2 nM | 401 nM
CC(C)(C(=O)NCc1ccc(F)cc1)N(C(=O)CCl)c1ccc(F)cc1 [Compound 185, 2-[(2-Chloroacetyl)-(4-fluoro-phenyl)-amino]-N-(4-fluoro-benzyl)-2-methyl-propionamide] | 127 nM | 2790 nM
N#Cc1ccc(N(C(=O)CCl)C(C(=O)NC2CCCCC2)c2cccs2)cc1 (centres unmarked) [Compound 122, 2-[(2-Chloroacetyl)-(4-cyanophenyl)amino]-N-cyclohexyl-2-thiophen-2-yl-acetamide] | 4 nM | 300 nM
CN(C(=O)N1CCN(C(=O)C(c2cccs2)N(C(=O)CCl)c2cccc(C(F)(F)F)c2)CC1)c1ccccc1 (centres unmarked) [Compound 204, 4-{2-[(2-Chloroacetyl)-(3-trifluoromethylphenyl)-amino]-2-thiophen-2-yl-acetyl}piperazine-1-carboxylic acid methylphenyl-amide] | 89 nM | 741 nM
CN1CCN(CCCOc2ccc(C(C(=O)NC3CCCCC3)N(C(=O)CCl)c3cccc(C(C)(C)C)c3)cc2)CC1 (centres unmarked) [Compound 189, 2-[(3-tert-Butyl-phenyl)-(2-chloro-acetyl)-amino]-N-cyclohexyl-2-[4-[3-(4-methyl-piperazin-1-yl)-propoxy]-phenyl]-acetamide] | 72 nM | 360 nM
O=C(OCc1ccccc1)N1CCN(C(=O)C(c2cccs2)N(C(=O)CCl)c2cccc(C(F)(F)F)c2)CC1 (centres unmarked) [Compound 198, 4-{2-[(2-chloro-acetyl)-(3-trifluoromethyl-phenyl)-amino]-2-thiophen-2-yl-acetyl}-piperazine-1-carboxylic acid benzyl ester] | 55 nM | 1080 nM
C#CC(=O)N(c1cccc(C(F)(F)F)c1)C(C(=O)Nc1ccccc1OCc1ccccc1)c1cccs1 (centres unmarked) [Compound 112, Propynoic Acid [(2-benzyloxyphenylcarbamoyl)thiophen-2-yl-methyl]-(3-trifluoromethylphenyl)amide] | 1.8 nM | 200 nM
C#CC(=O)N(c1ccccc1C#N)C(C(=O)NC1CCCCC1)c1cccs1 (centres unmarked) [Compound 54, Propynoic Acid (2-cyanophenyl)(cyclohexylcarbamoylthiophen-2-yl-methyl)amide] | 2.9 nM | 224 nM
CCN(CC)c1ccc(N(C(=O)CCl)C(C(=O)NC2CCCCC2)c2cccs2)cc1 (centres unmarked) [Compound 127, 2-[(2-Chloroacetyl)-(4-diethylaminophenyl)amino]-N-cyclohexyl-2-thiophen-2-yl-acetamide] | 7.5 nM | 77 nM
C#CC(=O)N(c1ccccc1Cl)C(C(=O)NC1CCCCC1)c1cccs1 (centres unmarked) [Compound 33, Propynoic Acid (2-chlorophenyl)(cyclohexylcarbamoylthiophen-2-yl-methyl)amide] | 2.7 nM | 736 nM
COc1ccc(N(C(=O)CCl)C(C(=O)NC2CCCCC2)c2cccs2)cc1 (centres unmarked) [Compound 109, 2-[(2-Chloroacetyl)-(4-methoxyphenyl)amino]-N-cyclohexyl-2-thiophen-2-yl-acetamide] | 1 nM | 100 nM
